Laboratory results reported in paper PMC8669712, “G Protein-Coupled Receptor GPR35 Suppresses Lipid Accumulation in Hepatocytes” (ACS Pharmacology & Translational Science, 2021).

How the values were obtained:
[1] = test system: hepatocytes from hGPR35a-HA-expressing mice; test: Label-free cellular impedance assay in hepatocytes from hGPR35a-HA-expressing mice; format: cell-based, mouse
[2] = test system: clone 27 HepG2 cells transfected with human GPR35a; test: Cellular impedance in clone 27 cells transiently transfected with human GPR35a; format: cell-based; conditions: ML-145 1 × 10^–5 M, lodoxamide 1 × 10^–8 M
Experimental: Briefly, CRISPR KO cells were transiently transfected 24 h with the human GPR35a expression vector using LipofectAMINE 3000 reagent, according to the manufacturer’s instructions. […] Alternatively, after 24 h transfection, cells were seeded onto a 12-well plate (1 × 10^5 cells/well) for 24 h at 37 °C. Then, cells were incubated with T0901317 and/or GPR35 agonists (in MEM containing 5% FBS) for 72 h. After the drug treatment, cells were stained with Oil Red O to examine the levels of lipid accumulation. Each experiment was repeated at least three times.
(§1) HepG2 cells were seeded onto xCELLigence E plates (2 × 10^4 cells/well) and incubated for 24 h at 37 °C. To evaluate GPR35 activation and its downstream G protein signaling, HepG2 cells or primary mouse hepatocytes were exposed to GPR35 antagonists or G protein inhibitors 1 h (overnight for Pertussis toxin) prior to GPR35 agonist stimulation. After the addition of GPR35 agonist or vehicle control, the impedance (represented as “cell index”) was recorded every 30 s over a 2 h period using xCELLigence RTCA (Agilent). Each experiment was repeated at least three times.

HepG2 cells [3] = test: Label-free cellular impedance assay (xCELLigence) in HepG2 cells; format: cell-based, human; conditions: HepG2 cells; for impedance response of antagonist added alone: 1 × 10^–5 M; for impedance response to lodoxamide on co-addition of antagonist: antagonist 1 × 10^–5 M, lodoxamide 1 × 10^–8 M
Experimental: as §1

HepG2 cells [4] = test: Oil Red O staining of LXR (T0901317)-induced lipid accumulation in HepG2 cells; format: cell-based, human; conditions: T0901317/lodoxamide, concentration-dependent
Experimental: Human hepatocellular carcinoma HepG2 cells were grown in Minimum Essential Medium (MEM) supplemented with 10% fetal bovine serum (FBS), 2 mM L-glutamine, 1× non-essential amino acid, 1 mM sodium pyruvate, and 1× penicillin/streptomycin. Materials for cell culture were all from Sigma-Aldrich (St. Louis, MO) or Thermo Fisher Scientific (Waltham, MA). Cells were incubated in a humidified CO2 incubator at 37 °C. […] Cells were seeded onto a 12-well plate (1 × 10^5 cells/well) for 24 h prior to drug treatment. […] Lipid accumulation was measured by Oil Red O staining.

human isoforms of GPR35 = target: human isoforms of GPR35; set-up: method as in PMID 23888932; conditions: read-out: Ki from competition studies against a [3H]radiolabeled agonist; cited from earlier work
[5] = test system: mouse orthologue of GPR35; set-up: method as in PMID 22967846, PMID 30601679; conditions: cited from earlier work
[6] = test system: hepatocytes from hGPR35a-HA-expressing mice; test: Oil Red O lipid accumulation in hepatocytes from hGPR35a-HA-expressing mice; format: cell-based, mouse; conditions: hepatocytes from hGPR35a-HA-expressing mice
Experimental: All mice were bred as WT or homozygous onto a C57BL/6N background. Animals were cared for in accordance with national guidelines on animal experimentation. All animal experiments were conducted under a home office license held by the authors. WT, humanized GPR35a, or KO male mice at 3–4 months of age were used in this study. These mice were fed ad libitum with a standard mouse chow diet. Briefly, mouse primary hepatocytes were isolated using a two-step collagenase perfusion technique.[45] Twelve-well plates or xCELLigence E plates were coated with rat tail collagen I solution (Thermo Fisher Scientific) overnight at 37 °C and washed with PBS. Isolated primary hepatocytes were seeded onto 12-well plates (8 × 10^4 cells/well) or xCELLigence E plates (2 × 10^4 cells/well) in Wiliam’s E medium (Thermo Fisher Scientific) supplemented with 10% fetal bovine serum (FBS) and 1× penicillin/streptomycin. Cells were maintained for 7 days with a fresh medium change every other day. […] Human GPR35 activation was examined using xCELLigence RTCA assay. To access the impact of GPR35 agonists on the lipid accumulation, WT and humanized GPR35 hepatocytes were incubated with T0901317 and/or GPR35 agonists/antagonists, as indicated (in DMEM medium containing 5% FBS and 1.5% BSA) for 48 h. Alternatively, GPR35 KO hepatocytes were incubated with drugs, as indicated for 5 days. In the T0901317 pretreatment model, human GPR35 hepatocytes were stimulated with T0901317 for 2 days and then further treated with lodoxamide for a further 3 days. After each drug treatment, hepatocytes were stained with Oil Red O and quantified as described. Each experiment was repeated at least three times.
Lipid accumulation was measured by Oil Red O staining. A working solution of Oil Red O was prepared, as described with modification.[46] After drug treatment, cells were washed with PBS and fixed with formalin solution for 1 h at 4 °C. Then, cells were stained with Oil Red O working solution for 10 min at room temperature. After PBS washing, Oil Red O was extracted from cells using 150 μl of isopropanol and OD510 nm measured. After the lipid extraction, cells were further soaked in PBS overnight at 4 °C. These cells were then stained with Hoechst 33342 (1 μg/mL) and the fluorescence intensity of Hoechst (represents the DNA content in cells) was measured using a CLARIOstar plate reader (BMG LABTECH). Oil Red O accumulation was corrected for differences in DNA content and expressed as relative absorbency, taking the control condition (treated with vehicle only) as 1.

[7] = test system: primary mouse hepatocytes; set-up: method as in Nam et al. 37; conditions: against 1 × 10^–6 M lodoxamide; ref Nam et al. 37; read-out: IC50 to block mouse GPR35 in primary hepatocytes; cited from earlier work

Row | SMILES | effect of co-addition of antagonist on the lodoxamide impedance response ([1]; ML-145 1 × 10^–5 M, lodoxamide 1 × 10^–7 M) | impedance effect of antagonist alone versus DMSO-containing vehicle ([1]; hepatocytes from hGPR35a-HA-expressing mice) | effect of co-addition of antagonist on the lodoxamide impedance signal in clone 27 cells transfected with human GPR35a [2] | impedance response of antagonist added alone (HepG2 cells [3]) | impedance response to lodoxamide on co-addition of antagonist (HepG2 cells [3]) | antagonist co-addition: effect of lodoxamide on LXR-induced lipid accumulation (HepG2 cells [4]) | Ki (human isoforms of GPR35) | affinity at the mouse orthologue of GPR35 [5] | effect of antagonist added alone on lipid content [6] | effect of antagonist on lodoxamide suppression of lipid accumulation ([6]; T0901317/lodoxamide 5 × 10^–6 M) | IC50 [7]
1 | CC(/C=C1\SC(=S)N(CCCC(=O)Nc2ccc(C(=O)O)c(O)c2)C1=O)=C\c1ccccc1 [ML-145, 2-hydroxy-4-[4-(5Z)-5-[(E)-2-methyl-3-phenylprop-2-enylidene]-4-oxo-2-sulfanylidene-1,3-thiazolidin-3-yl]butanoylaminobenzoic acid] | prevented | no separate effect | blocked | neither antagonist generated a response distinct from the vehicle | absent | prevented the effect of lodoxamide on lipid accumulation | 8.7 nM | neither of these ligands has measurable affinity | without effect when added alone | blocked the effect of lodoxamide in a concentration-dependent manner | –
2 | COC(=O)c1cnn(-c2ccc(F)cc2F)c1C=NNC(=S)NC(C)(C)C [CID-2745687, 1-(2,4-difluorophenyl)-5-[[2-[[(1,1-dimethylehyl)amino]thioxomethyl]hydrazinylidene]methyl]-1H-pyrazole-4-carboxylic acid methyl ester] | – | – | – | neither antagonist generated a response distinct from the vehicle | absent | prevented the effect of lodoxamide on lipid accumulation | 42 nM | neither of these ligands has measurable affinity | – | – | 98 nM
